# Values of other authors as cited in article PMC9516332 (Frontiers in Oncology, 2022).
# Read-outs that look alike come from different tables or passages of the source.
# Assays:
# [1] = molecular target: panel of 255 wild-type kinases (Homo sapiens, UniProt Q86V86); details: kinase PIM3, 1 µmol/L single concentration, cited from earlier work
# [2] = molecular target: panel of 255 wild-type kinases (Homo sapiens, UniProt Q9NYY3); details: kinase PLK2, 1 µmol/L single concentration, cited from earlier work
# [3] = molecular target: panel of 255 wild-type kinases (Homo sapiens, UniProt Q8TDX7); details: NEK7, 1 µmol/L single concentration, cited from earlier work
# [4] = molecular target: panel of 255 wild-type kinases (Homo sapiens, UniProt P21802); details: kinase FGFR2, 1 µmol/L single concentration, cited from earlier work
# [5] = molecular target: T1, panel of 255 wild-type kinases (Homo sapiens, UniProt P29322); details: kinase EPHA8, 1 µmol/L single concentration, cited from earlier work
# T1 sequence (P29322 28-1005): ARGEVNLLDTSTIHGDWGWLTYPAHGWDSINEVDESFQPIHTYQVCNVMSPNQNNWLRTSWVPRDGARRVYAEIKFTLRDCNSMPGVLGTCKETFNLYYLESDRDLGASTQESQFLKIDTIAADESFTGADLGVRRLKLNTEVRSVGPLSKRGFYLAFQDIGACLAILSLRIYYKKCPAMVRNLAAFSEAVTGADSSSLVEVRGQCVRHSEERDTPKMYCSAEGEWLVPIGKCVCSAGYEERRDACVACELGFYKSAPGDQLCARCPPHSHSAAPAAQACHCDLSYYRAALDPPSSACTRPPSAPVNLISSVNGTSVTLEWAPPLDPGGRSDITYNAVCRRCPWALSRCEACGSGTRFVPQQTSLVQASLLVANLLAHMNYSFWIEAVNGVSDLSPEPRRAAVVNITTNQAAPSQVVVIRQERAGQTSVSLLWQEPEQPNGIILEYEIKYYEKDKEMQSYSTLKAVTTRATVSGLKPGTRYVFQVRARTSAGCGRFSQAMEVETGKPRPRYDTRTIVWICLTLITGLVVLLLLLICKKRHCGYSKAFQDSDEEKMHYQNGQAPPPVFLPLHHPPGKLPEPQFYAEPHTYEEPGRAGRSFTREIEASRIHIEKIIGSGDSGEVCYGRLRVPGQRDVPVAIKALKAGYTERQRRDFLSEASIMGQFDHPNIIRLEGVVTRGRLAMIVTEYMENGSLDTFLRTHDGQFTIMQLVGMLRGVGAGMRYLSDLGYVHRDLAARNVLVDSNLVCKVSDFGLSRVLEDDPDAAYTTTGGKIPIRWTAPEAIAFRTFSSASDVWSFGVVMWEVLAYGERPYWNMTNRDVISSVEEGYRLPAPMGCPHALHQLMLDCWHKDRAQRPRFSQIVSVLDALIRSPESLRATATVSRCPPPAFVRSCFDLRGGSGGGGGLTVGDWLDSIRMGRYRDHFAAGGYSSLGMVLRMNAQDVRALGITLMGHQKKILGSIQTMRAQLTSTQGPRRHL
# [6] = molecular target: panel of 255 wild-type kinases (Homo sapiens, UniProt P24723); details: kinase PKCη, 1 µmol/L single concentration, cited from earlier work
# [7] = molecular target: panel of 255 wild-type kinases (Homo sapiens, UniProt Q9Y5S2); details: MRCKβ, 1 µmol/L single concentration, cited from earlier work
# [8] = molecular target: panel of 255 wild-type kinases (Homo sapiens, UniProt Q05655); details: kinase PKCδ, 1 µmol/L single concentration, cited from earlier work
# [9] = molecular target: panel of 255 wild-type kinases (Homo sapiens, UniProt Q13882); details: BRK kinase assay, 1 µmol/L single concentration, cited from earlier work
# [10] = molecular target: panel of 255 wild-type kinases (Homo sapiens, UniProt P42685); details: kinase FRK, 1 µmol/L single concentration, cited from earlier work
# [11] = molecular target: T2, panel of 255 wild-type kinases (Homo sapiens, UniProt O15530); details: kinase PDK1, 1 µmol/L single concentration, cited from earlier work
# T2 sequence (O15530 1-556): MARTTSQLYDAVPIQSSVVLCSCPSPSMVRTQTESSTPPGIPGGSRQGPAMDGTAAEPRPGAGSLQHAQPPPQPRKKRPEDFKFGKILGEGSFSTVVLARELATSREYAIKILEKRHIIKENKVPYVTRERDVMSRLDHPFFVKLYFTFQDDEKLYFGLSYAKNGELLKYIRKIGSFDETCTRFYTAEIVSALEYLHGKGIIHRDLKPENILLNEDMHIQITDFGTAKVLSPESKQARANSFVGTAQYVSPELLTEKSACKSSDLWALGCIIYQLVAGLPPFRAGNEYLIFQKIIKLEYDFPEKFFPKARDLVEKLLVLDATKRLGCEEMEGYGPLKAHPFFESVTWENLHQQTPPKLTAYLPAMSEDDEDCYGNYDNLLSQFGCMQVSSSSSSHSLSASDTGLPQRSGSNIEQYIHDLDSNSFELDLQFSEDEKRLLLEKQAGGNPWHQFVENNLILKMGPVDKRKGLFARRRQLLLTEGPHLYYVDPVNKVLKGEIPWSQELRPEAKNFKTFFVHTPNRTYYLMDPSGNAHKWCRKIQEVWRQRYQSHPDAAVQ
# [12] = ref DOI: 10.1371/journal.pone.0092146
# [13] = ref DOI: 10.1158/1535-7163.MCT-18-0877
SMILES,"%-inhibition at 1 µmol/L, PIM3 [1, 12] [%]","%-inhibition at 1 µmol/L, PLK2 [2, 12] [%]","%-inhibition, NEK7 [3, 12] [%]","%-inhibition at 1 µmol/L, FGFR2 [4, 12] [%]","%-inhibition at 1 µmol/L, EPHA8 [5, 12] [%]","%-inhibition at 1 µmol/L, PKCη [6, 12] [%]","%-inhibition, MRCKβ [7, 12] [%]","%-inhibition at 1 µmol/L, PKCδ [8, 12] [%]","%-inhibition BRK [9, 12] [%]","%-inhibition at 1 µmol/L, FRK [10, 12] [%]","%-inhibition at 1 µmol/L, PDK1 [11, 12] [%]",other results
CCCS(=O)(=O)Nc1ccc(F)c(C(=O)c2c[nH]c3ncc(-c4ccc(Cl)cc4)cc23)c1F [vemurafenib],-5,-1.85,-3.56,10,7,-22,-5,-5,98,62,-4,
CCc1cc2c(cc1N1CCC(N3CCOCC3)CC1)C(C)(C)c1[nH]c3cc(C#N)ccc3c1C2=O [alectinib],,,,,,,,,,,,"%-inhibition at 1 µmol/L, PIM3 [1, 13]: 52%; %-inhibition at 1 µmol/L, PLK2 [2, 13]: 6%; %-inhibition, NEK7 [3, 13]: -1.33%; %-inhibition at 1 µmol/L, FGFR2 [4, 13]: 2%; %-inhibition at 1 µmol/L, EPHA8 [5, 13]: 12%; %-inhibition at 1 µmol/L, PKCη [6, 13]: 10%; %-inhibition, MRCKβ [7, 13]: -5%; %-inhibition at 1 µmol/L, PKCδ [8, 13]: 1.83%; %-inhibition BRK [9, 13]: 9%; %-inhibition at 1 µmol/L, FRK [10, 13]: 53%; %-inhibition at 1 µmol/L, PDK1 [11, 13]: -2.12%"
CC(=O)Nc1cccc(-n2c(=O)n(C3CC3)c(=O)c3c(Nc4ccc(I)cc4F)n(C)c(=O)c(C)c32)c1 [trametinib],8.44,-1.65,1.63,-2.64,-8,-8,-2.56,-4.75,-5.53,-3,-5.52,
